Data: patent US20250099545A1, “COMPOSITIONS, SYSTEMS, AND METHODS FOR TREATING CANCER USING TUMOR TREATING FIELDS WITH IMMUNE CHECKPOINT INHIBITORS AND MHC CLASS I ACTIVATORS” (Novocure GmbH, priority 2023, published 2025)
Read-outs that look alike come from different tables or passages of the source.

Legend:
[1] = system: MHC Class I expression in Panc02-luc mouse pancreatic cells; conditions: TTFields (1.75V/cm and 150 kHz) plus 10 μM chloroquine, 72 h, vs untreated control
Experimental: Panc02-luc mouse pancreatic cells (10,000 cells/well) were incubated for 72 h with the following conditions: Control untreated, 10 μM chloroquine (autophagy inhibitor), TTFields (1.75V/cm and 150 kHz), and TTFields plus 10 μM chloroquine.
In FIG. 3, MHC Class I expression was evaluated in Panc02-luc mouse pancreatic cells (an orthotopic model of pancreatic cancer) following chloroquine (an autophagy inhibitor) treatment alone, TTFields application alone, and the combination of TTFields application with concomitant chloroquine treatment.

[2] = system: MHC Class I expression in A2780 human ovarian cancer cells; assay: MHC Class I expression in A2780 cells after alpelisib, TTFields or both; type: cell-based; conditions: TTFields (1.75V/cm and 200 kHz) plus 250 nM alpelisib for 72 h, then 72 h without drug under TTFields, vs untreated control and single treatments
Experimental: A2780 human ovarian cancer cells (20,000 cells/well) were incubated for 144 h with the following conditions: Control untreated; 250 nM alpelisib (PI3K inhibitor) for 72 h—media containing the drug was removed, and fresh media without alpelisib was added for an additional 72 h incubation; TTFields (1.75V/cm and 200 kHz); TTFields plus 250 nM alpelisib for 72 h—media containing the drug was removed, and fresh media without alpelisib was added for an additional 72 h incubation under TTFields condition.

Structure (SMILES) | MHC Class I expression [1] | MHC Class I expression ([1]; listed as Chloroquine) | MHC Class I expression [2] | MHC Class I expression ([2]; listed as Alpelisib)
CCN(CC)CCCC(C)Nc1ccnc2cc(Cl)ccc12 (stereo not shown) [chloroquine] | increased significantly above the untreated cells | increased with concomitant Chloroquine treatment |  | 
Cc1nc(NC(=O)N2CCC[C@H]2C(N)=O)sc1-c1ccnc(C(C)(C)C(F)(F)F)c1 [alpelisib] |  |  | greater than in the untreated control group as well as in the single treatment groups | increased with concomitant Alpelisib treatment
